Two molecules from ChEMBL document CHEMBL5649169 (ChemMedChem, 2018) can be followed below.

The structures appear in SMILES notation.

The target in assay [1] is eIF5-mimic protein 1 (Homo sapiens) (UniProt Q9Y6E2).
Assay [2] concerns the target Lipid scramblase CLPTM1L (Homo sapiens) (UniProt Q96KA5).
In assay [3] the target is Sorting nexin-2 (Homo sapiens) (UniProt O60749).
Assay [4] has as its target Eukaryotic translation initiation factor 2-alpha kinase 1 (Homo sapiens) (UniProt Q9BQI3).
Assay [5] concerns the target Serine/threonine-protein kinase LMTK2 (Homo sapiens) (UniProt Q8IWU2).
Assay [6] concerns the target Periphilin-1 (Homo sapiens) (UniProt Q8NEY8).
The target in assay [7] is Aldo-keto reductase family 1 member D1 (Homo sapiens) (UniProt P51857).
Sequence of Aldo-keto reductase family 1 member D1 (Homo sapiens) (P51857 whole entry): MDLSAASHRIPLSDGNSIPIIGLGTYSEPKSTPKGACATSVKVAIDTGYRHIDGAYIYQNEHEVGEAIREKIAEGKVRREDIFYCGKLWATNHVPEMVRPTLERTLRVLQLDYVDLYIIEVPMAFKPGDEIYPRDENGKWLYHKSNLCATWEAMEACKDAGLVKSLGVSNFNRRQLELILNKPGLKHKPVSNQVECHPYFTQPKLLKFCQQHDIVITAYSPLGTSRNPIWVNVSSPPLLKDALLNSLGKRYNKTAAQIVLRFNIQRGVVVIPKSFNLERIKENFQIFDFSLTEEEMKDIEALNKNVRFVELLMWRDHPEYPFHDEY
Assay [8] addresses Glutathione S-transferase kappa 1 (Homo sapiens) (UniProt Q9Y2Q3).
The target of assay [9] is Large subunit GTPase 1 homolog (Homo sapiens) (UniProt Q9H089).
Sequence of Large subunit GTPase 1 homolog (Homo sapiens) (Q9H089 whole entry): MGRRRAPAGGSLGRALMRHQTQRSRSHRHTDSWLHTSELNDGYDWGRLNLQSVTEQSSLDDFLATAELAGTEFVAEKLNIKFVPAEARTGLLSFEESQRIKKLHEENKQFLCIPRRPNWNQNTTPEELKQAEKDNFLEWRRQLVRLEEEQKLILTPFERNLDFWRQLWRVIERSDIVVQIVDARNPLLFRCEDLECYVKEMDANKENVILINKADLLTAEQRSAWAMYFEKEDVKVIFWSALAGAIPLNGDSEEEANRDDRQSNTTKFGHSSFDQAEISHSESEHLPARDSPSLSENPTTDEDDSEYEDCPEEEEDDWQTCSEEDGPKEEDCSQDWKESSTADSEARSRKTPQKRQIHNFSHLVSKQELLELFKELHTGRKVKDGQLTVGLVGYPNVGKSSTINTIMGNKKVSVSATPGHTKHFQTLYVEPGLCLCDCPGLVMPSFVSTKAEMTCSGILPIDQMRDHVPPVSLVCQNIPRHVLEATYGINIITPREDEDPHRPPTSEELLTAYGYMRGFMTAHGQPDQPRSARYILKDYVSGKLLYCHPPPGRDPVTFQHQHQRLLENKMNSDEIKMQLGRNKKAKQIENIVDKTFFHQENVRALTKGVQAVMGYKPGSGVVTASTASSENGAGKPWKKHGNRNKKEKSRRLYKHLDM
Assay [10] concerns the target Protein CIP2A (Homo sapiens) (UniProt Q8TCG1).
Assay [11] concerns the target Arfaptin-2 (Homo sapiens) (UniProt P53365).
The target in assay [12] is Nucleosome assembly protein 1-like 4 (Homo sapiens) (UniProt Q99733).
In assay [13] the target is Programmed cell death protein 10 (Homo sapiens) (UniProt Q9BUL8).
Assay [14] is filed under the species Homo sapiens.
For assay [15], the target named is Splicing factor 3B subunit 2 (Homo sapiens) (UniProt Q13435).
Assay [16] addresses Origin recognition complex subunit 3 (Homo sapiens) (UniProt Q9UBD5).
The target of assay [17] is La-related protein 7 (Homo sapiens) (UniProt Q4G0J3).
Sequence of La-related protein 7 (Homo sapiens) (Q4G0J3 whole entry, the tested form may be a part): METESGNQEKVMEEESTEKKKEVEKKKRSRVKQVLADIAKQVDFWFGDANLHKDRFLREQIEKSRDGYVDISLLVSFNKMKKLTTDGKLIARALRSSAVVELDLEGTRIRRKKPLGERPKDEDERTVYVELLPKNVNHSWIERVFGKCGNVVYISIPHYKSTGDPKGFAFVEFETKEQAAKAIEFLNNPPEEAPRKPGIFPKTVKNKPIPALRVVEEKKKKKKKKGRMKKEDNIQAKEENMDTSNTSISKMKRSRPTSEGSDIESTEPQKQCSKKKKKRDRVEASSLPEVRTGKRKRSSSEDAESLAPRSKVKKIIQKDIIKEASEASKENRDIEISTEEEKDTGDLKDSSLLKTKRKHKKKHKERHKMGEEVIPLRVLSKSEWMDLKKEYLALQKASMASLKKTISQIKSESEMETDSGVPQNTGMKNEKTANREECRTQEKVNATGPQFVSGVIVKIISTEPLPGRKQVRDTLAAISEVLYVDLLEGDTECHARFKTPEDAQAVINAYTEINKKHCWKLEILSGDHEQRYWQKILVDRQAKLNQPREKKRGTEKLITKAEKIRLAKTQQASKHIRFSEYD
In assay [18] the target is Probable helicase with zinc finger domain (Homo sapiens) (UniProt P42694).
Assay [19] has as its target Calcium-binding and coiled-coil domain-containing protein 2 (Homo sapiens) (UniProt Q13137).
In assay [20] the target is PHD finger protein 6 (Homo sapiens) (UniProt Q8IWS0).
Assay [21] has as its target DnaJ homolog subfamily C member 9 (Homo sapiens) (UniProt Q8WXX5).
Assay [22] deals with Protein kinase C zeta type (Homo sapiens) (UniProt Q05513).
Assay [23] deals with Non-selective voltage-gated ion channel VDAC2 (Homo sapiens) (UniProt P45880).
Assay [24] is filed under the species Homo sapiens. This is another data set of the same source.
Assay [25] deals with Ribosomal protein S6 kinase beta-1 (Homo sapiens) (UniProt P23443).
Assay [26] concerns the target Echinoderm microtubule-associated protein-like 4 (Homo sapiens) (UniProt Q9HC35).
For assay [27], the target named is Serine/threonine-protein kinase pim-2 (Homo sapiens) (UniProt Q9P1W9).
Assay [28] has as its target Receptor for retinol uptake STRA6 (Homo sapiens) (UniProt Q9BX79).
In assay [29] the target is Macoilin (Homo sapiens) (UniProt Q8N5G2).
Assay [30] deals with Desmoglein-1 (Homo sapiens) (UniProt Q02413).
In assay [31] the target is Forkhead box protein K1 (Homo sapiens) (UniProt P85037).
Assay [32] has as its target Nascent polypeptide-associated complex subunit alpha (Homo sapiens) (UniProt Q13765).
Assay [33] deals with Nucleolar MIF4G domain-containing protein 1 (Homo sapiens) (UniProt Q5C9Z4).
The species entered for assay [34] is Homo sapiens. This is another data set of the same source.
The target in assay [35] is Very-long-chain (3R)-3-hydroxyacyl-CoA dehydratase 2 (Homo sapiens) (UniProt Q6Y1H2).
Sequence of Very-long-chain (3R)-3-hydroxyacyl-CoA dehydratase 2 (Homo sapiens) (Q6Y1H2 whole entry): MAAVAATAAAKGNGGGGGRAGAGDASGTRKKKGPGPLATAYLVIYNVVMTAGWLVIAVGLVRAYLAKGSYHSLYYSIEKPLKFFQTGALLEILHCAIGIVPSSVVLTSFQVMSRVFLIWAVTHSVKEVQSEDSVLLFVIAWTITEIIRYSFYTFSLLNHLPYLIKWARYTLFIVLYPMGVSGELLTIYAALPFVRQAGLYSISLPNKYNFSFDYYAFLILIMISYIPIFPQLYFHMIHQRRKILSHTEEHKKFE
Assay [36] deals with Tubulin alpha-4A chain (Homo sapiens) (UniProt P68366).
Sequence of Tubulin alpha-4A chain (Homo sapiens) (P68366 whole entry, looked up): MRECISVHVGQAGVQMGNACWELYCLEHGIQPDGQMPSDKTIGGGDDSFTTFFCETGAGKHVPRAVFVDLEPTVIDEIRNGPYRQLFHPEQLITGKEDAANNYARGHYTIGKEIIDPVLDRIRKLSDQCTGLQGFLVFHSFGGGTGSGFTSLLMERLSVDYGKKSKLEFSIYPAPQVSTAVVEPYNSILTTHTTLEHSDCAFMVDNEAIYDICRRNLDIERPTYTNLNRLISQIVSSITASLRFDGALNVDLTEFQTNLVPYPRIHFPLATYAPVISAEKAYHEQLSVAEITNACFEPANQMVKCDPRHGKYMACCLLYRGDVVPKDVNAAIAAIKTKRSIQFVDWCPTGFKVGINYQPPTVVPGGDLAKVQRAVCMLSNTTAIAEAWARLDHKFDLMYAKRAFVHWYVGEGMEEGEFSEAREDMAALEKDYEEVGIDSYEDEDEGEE
Assay [37] addresses Radixin (Homo sapiens) (UniProt P35241).
Assay [38] deals with Centrosome and spindle pole-associated protein 1 (Homo sapiens) (UniProt Q1MSJ5).
Sequence of Centrosome and spindle pole-associated protein 1 (Homo sapiens) (Q1MSJ5 whole entry): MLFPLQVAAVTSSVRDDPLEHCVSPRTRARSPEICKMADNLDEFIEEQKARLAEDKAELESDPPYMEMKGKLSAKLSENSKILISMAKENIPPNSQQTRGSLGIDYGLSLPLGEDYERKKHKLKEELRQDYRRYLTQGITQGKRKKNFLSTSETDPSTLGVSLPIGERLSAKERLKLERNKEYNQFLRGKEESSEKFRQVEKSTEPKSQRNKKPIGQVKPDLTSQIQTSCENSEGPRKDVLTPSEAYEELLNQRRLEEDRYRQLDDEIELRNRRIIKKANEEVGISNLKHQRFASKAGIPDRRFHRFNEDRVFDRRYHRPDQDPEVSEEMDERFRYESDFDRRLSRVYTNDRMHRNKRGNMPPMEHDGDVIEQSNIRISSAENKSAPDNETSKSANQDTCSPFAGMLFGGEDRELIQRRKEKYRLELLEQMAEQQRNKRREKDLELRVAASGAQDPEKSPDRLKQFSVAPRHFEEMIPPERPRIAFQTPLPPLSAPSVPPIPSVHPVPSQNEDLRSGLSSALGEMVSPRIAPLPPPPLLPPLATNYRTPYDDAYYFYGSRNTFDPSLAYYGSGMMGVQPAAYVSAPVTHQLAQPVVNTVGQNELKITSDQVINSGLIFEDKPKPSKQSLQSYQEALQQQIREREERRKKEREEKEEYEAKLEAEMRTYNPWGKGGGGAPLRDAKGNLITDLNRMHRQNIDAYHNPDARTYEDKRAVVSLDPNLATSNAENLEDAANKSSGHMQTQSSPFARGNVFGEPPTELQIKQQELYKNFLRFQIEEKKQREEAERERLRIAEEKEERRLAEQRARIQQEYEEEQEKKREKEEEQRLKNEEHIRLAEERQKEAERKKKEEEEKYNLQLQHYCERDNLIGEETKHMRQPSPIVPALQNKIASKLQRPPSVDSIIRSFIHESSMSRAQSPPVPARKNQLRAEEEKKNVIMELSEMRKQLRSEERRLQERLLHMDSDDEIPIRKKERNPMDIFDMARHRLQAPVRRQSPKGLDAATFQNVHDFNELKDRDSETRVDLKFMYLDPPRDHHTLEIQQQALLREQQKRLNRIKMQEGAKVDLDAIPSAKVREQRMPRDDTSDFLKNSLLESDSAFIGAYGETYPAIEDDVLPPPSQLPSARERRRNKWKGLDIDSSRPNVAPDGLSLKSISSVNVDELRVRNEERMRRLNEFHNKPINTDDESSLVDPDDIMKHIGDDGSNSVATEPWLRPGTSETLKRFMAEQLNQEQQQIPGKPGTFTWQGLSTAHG
Assay [39] has as its target Putative protein-lysine deacylase ABHD14B (Homo sapiens) (UniProt Q96IU4).
Assay [40] deals with Rapamycin-insensitive companion of mTOR (Homo sapiens) (UniProt Q6R327).
For assay [41], the target named is Vacuole membrane protein 1 (Homo sapiens) (UniProt Q96GC9).
Sequence of Vacuole membrane protein 1 (Homo sapiens) (Q96GC9 whole entry): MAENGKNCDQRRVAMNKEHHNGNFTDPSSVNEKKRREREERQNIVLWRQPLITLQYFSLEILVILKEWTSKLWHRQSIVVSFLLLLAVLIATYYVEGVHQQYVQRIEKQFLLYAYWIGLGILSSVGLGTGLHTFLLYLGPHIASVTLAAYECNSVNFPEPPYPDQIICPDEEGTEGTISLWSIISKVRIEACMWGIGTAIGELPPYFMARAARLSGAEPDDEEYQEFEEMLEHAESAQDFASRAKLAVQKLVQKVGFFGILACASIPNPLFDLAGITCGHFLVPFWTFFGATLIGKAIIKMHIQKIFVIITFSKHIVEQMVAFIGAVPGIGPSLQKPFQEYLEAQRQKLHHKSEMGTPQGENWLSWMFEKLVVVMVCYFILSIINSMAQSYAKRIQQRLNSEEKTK
The target of assay [42] is Dolichol-phosphate mannosyltransferase subunit 1 (Homo sapiens) (UniProt O60762).
The target in assay [43] is Citrate synthase, mitochondrial (Homo sapiens) (UniProt O75390).
Assay [44] deals with Probable rRNA-processing protein EBP2 (Homo sapiens) (UniProt Q99848).
For assay [45], the target named is Very long-chain specific acyl-CoA dehydrogenase, mitochondrial (Homo sapiens) (UniProt P49748).
In assay [46] the target is DNA mismatch repair protein Msh6 (Homo sapiens) (UniProt P52701).
Assay [47] addresses Serine/arginine-rich splicing factor 2 (Homo sapiens) (UniProt Q01130).
Assay [48] addresses Elongation factor Tu, mitochondrial (Homo sapiens) (UniProt P49411).
Note: assay method not described here.

Sequence of DnaJ homolog subfamily C member 9 (Homo sapiens) (Q8WXX5 whole entry): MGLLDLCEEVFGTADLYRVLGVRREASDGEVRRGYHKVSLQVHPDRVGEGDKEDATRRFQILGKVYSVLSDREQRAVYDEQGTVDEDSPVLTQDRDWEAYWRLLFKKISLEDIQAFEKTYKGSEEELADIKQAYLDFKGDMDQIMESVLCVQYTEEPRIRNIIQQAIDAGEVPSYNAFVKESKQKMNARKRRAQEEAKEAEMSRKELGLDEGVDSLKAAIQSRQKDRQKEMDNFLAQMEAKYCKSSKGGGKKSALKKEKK
Sequence of Radixin (Homo sapiens) (P35241 whole entry): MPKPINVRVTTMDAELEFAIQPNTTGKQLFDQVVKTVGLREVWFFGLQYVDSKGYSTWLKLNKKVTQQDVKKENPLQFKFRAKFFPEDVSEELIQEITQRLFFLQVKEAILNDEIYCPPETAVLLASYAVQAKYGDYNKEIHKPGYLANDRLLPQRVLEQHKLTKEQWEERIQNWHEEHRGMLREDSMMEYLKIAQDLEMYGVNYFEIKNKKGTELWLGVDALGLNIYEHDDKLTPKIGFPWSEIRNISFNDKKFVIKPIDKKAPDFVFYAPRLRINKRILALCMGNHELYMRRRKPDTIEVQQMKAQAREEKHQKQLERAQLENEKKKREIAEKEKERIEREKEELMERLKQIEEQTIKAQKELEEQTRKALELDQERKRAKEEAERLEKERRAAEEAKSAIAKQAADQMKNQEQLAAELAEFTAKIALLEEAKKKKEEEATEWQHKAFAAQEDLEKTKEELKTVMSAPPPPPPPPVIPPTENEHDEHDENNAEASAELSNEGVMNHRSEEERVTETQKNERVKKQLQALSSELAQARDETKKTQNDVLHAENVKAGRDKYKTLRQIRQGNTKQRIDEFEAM
Sequence of Putative protein-lysine deacylase ABHD14B (Homo sapiens) (Q96IU4 whole entry): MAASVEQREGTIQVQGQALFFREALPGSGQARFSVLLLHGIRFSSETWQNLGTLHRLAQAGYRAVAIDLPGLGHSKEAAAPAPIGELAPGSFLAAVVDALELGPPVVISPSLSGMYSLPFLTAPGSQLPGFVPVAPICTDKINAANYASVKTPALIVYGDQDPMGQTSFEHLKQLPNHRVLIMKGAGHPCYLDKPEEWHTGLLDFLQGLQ

For the molecule `Cc1ccc(C(=O)Nc2cccc(C(F)(F)F)c2)cc1Nc1nc(-c2cccnc2)nc2c1cnn2C`, the ED50 in assay [1] was 16.7 nM; in assay [2], 8.16 nM; in [3], 0.171 nM; in assay [4], 25.6 µM; in [5], 2390 nM; in assay [6] it was 336 nM. Moreover, the ED50 was 71.9 nM in assay [7]; 6.96 µM in assay [8]; 0.521 nM in assay [9]; 12.6 µM in assay [10]; 211 µM in [11]; 9.2 µM in assay [12]. The ED50 in assay [13] was 2.15 nM; in assay [14] it was 29.9 nM; in assay [15], 6.91 nM; in [16] it was 22.9 µM; in [17] it was 13.7 µM; in assay [18] it was 9.39 nM. Besides, the ED50 was determined as 675 nM in assay [19]; 2010 nM in [20]; 8.8 µM in assay [21]; 6.21 mM in [22]; 3.15 µM in [23]; 59 nM in [24]. The ED50 turned out to be 17.6 µM in [25]; 761 nM in [26]; 12.2 µM in [27]; 73.5 nM in [28]; 92 nM in assay [29]; 47.5 µM in assay [30]. Moreover, the ED50 in assay [31] stood at 3.59 nM; in assay [32], 90.1 nM; in [33] it was 3.22 nM; in assay [34] it was 15.7 µM; in [35], 23.7 µM; in assay [36], 12.2 nM. Besides, the ED50 was found to be 2 nM in assay [37], 1410 nM in assay [38], 5.47 mM in [39] and 10.1 µM in [40].
Take `Cc1ccc(C(=O)Nc2cccc(C(F)(F)F)c2)cc1Nc1nc(-c2cccnc2)nc2nn(C)cc12`: the ED50 worked out at 1930 nM in assay [41]; 2900 nM in [42]; 62.4 µM in assay [43]; 43.2 nM in [44]; 51 nM in [45]; 49.5 nM in assay [46]. For the same molecule, the results for the ED50 in assay [47] and in assay [48] were 9.31 nM and 32.7 µM, respectively.
